Experimental data published in US12162858B2, “Quinoline derivatives as inhibitors of AXL/MER RTK and CSF1R” (QURIENT CO., LTD., priority 2018, dated 2024).

Tests used:
MV4-11 tumor cells = assay: MV4-11 xenograft tumor model; format: in vivo, BALB/c nude mice; conditions: oral, daily; vs compound 27 of WO 2016/166250 or vehicle; FIG. 2
Description: (§1) FIGS. 1 and 2 show comparison data of compound 4 of the present invention (marked with two asterisks** and diamond) vs. compound 27 of WO2016/166250 (marked with single asterisk* and open square) in mouse models EMT-6 and MV4-11; EMT-6 measures triple inhibition of Axl, Mer and CSF1R. MV4-11 measures inhibition of Axl.
High expression of Axl or Gas6 in acute myeloid leukemia (AML) patients is prognostic for poor survival outcome. AML cells induce expression and secretion of the Axl ligand Gas6 by bone marrow-derived stromal cells (BMDSCs). Gas6 in turn mediates proliferation, survival, and chemoresistance of Axl-expressing AML cells. This Gas6/Axl paracrine axis between AML cells and BMDSCs establishes a chemoprotective tumor cell niche that can be abrogated by Axl-targeting approaches. […]
BALB/c nude mice (6-8 week female, Shanghai SIPPR/BK Laboratory Animal Co., LTD.) were inoculated subcutaneously at the upper right flank with MV4-11 tumor cells (1×10^7) in 0.1 mL of PBS+Matrigel (1:1) for tumor development. […] Tumor volumes were measured every 3 days with a digital caliper, and were calculated using the formula: V=0.5a×b^2 where a and b are the long and short diameters of the tumor in mm, respectively. Body weight was measured every 3 days. […] Death and observed clinical signs were recorded on the basis of the numbers of animals within each subset. […]

EMT-6 tumor cells = assay: EMT-6 syngeneic tumor model; format: in vivo, BALB/c mice; conditions: oral, daily; vs compound 27 of WO 2016/166250 or vehicle; FIG. 1
Description: as §1
In case of CSF1R, it mediates tumorigenesis in tumor-immune microenvironments and is expressed on myeloid cell tumor-associated macrophages (TAMs); elevated serum CSF1, increased numbers of TAMs in tumors, and high expression of tissue CSF1 and/or CSF1R are associated with poor prognosis in patients with various cancers. […] Therefore, EMT-6 is a suitable model for immune-oncology drug efficacy effects through changes in target immune cells.
BALB/c mice (6-8 week female, Beijing Vital River Laboratory Animal Technology Co., Ltd.) were inoculated subcutaneously at the upper right flank with EMT-6 tumor cells (1×10^6) in 0.1 mL of PBS for tumor development. […] Tumor volumes were measured every 3 days with a digital caliper, and were calculated using the formula: V=0.5a×b^2 where a and b are the long and short diameters of the tumor in mm, respectively. Body weight was measured every 3 days. […] Death and observed clinical signs were recorded on the basis of the numbers of animals within each subset. […]

## CCn1cc(OCC(F)(F)F)c(C(=O)Nc2ccc(Oc3ccnc4cc(OC)c(OC)cc34)cn2)n1 [Compound 4]
MV4-11 tumor cells
  tumor growth delay, MV4-11 xenograft model: delay tumor growth to a drastically larger extent
EMT-6 tumor cells
  tumor growth delay, EMT-6 syngeneic model: delay tumor growth to a significantly larger extent
